IC50 data for six compounds are collected here from ChEMBL document CHEMBL6109163, “6-Aryl Isoindolin-1-ones: Novel mGluR2 Negative Allosteric Modulators” (ACS Med Chem Lett, 2025).

The target of assay [1] is Metabotropic glutamate receptor 3 (Rattus norvegicus, UniProt P31422). Kind of assay: Negative allosteric modulator activity at rat mGluR3 receptor by TI flux assay-based fluorescence analysis.
In assay [2] the target is Metabotropic glutamate receptor 2 (Rattus norvegicus, UniProt P31421). Kind of assay: Negative allosteric modulator activity at glutamate-stimulated rat mGluR2 receptor expressed in HEK293 cells assessed as inhibition of thallium flux preincubated for 2 mins 20 secs followed by glutamate addition and measured for 2.5 mins by fluorescence based analysis. The class given is cell-based.
Chain of Metabotropic glutamate receptor 2 (P31421 whole entry): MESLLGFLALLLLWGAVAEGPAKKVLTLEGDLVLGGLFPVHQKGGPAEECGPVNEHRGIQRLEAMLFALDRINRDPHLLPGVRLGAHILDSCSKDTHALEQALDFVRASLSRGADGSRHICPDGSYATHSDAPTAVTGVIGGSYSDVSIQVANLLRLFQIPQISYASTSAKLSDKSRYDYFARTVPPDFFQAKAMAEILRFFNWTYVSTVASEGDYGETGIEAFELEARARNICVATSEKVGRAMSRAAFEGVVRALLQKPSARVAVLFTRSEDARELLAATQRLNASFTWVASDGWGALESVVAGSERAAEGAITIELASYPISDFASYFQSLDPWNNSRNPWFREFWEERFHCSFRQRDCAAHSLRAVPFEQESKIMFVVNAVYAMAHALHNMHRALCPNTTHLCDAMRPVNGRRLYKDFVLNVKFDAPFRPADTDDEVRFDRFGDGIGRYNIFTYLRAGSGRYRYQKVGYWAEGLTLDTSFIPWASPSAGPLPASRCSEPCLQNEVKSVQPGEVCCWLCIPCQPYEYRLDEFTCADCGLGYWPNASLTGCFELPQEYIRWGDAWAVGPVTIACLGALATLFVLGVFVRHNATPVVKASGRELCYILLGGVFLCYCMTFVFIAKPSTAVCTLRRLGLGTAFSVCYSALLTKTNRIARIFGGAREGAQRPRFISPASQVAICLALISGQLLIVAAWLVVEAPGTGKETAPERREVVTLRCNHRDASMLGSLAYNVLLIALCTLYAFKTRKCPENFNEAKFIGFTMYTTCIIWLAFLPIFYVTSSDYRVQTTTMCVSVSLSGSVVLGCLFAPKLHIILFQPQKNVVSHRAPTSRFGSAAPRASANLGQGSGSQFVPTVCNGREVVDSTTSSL

The term IC50 denotes the concentration that gives 50% inhibition.

The structures appear in SMILES notation.

Chain of Metabotropic glutamate receptor 3 (P31422 whole entry): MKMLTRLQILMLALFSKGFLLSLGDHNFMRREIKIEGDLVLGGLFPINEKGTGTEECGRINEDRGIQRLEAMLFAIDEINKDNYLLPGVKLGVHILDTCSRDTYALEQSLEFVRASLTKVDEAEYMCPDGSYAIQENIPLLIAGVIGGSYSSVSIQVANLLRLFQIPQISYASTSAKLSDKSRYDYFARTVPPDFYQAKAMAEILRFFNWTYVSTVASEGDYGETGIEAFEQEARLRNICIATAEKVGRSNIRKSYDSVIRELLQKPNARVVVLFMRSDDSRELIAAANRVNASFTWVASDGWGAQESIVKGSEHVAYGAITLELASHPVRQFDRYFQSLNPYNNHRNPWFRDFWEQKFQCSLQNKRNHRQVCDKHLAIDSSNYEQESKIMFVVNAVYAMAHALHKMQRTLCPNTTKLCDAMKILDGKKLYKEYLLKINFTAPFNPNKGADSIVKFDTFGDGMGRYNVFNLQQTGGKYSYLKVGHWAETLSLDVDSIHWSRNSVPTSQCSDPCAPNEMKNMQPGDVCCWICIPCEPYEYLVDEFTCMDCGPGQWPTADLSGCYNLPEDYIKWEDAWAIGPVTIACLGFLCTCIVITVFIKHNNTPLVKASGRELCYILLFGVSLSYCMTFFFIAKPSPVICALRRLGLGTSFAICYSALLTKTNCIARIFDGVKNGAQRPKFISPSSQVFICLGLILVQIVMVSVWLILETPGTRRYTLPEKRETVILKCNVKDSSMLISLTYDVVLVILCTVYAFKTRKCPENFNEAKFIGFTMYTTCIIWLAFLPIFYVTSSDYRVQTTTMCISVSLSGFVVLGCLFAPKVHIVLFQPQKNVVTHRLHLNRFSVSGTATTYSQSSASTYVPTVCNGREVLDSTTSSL

In the case of `O=C1NCc2cc(-c3cccnc3C3CC3)c(-c3ccc(F)cc3F)cc21`, the IC50 in assay [1] was greater than 10 µM; in assay [2], 0.693 µM.

`O=C1NCc2cc(C3CCOCC3)c(-c3ccc(F)cc3)cc21` had an IC50 in assay [1] greater than 10 µM.

`N#Cc1cccc(-c2cc3c(cc2-c2ccc(F)cc2F)C(=O)NC3)c1F` returned an IC50 in assay [1] greater than 10 µM.

Take `Cc1ccc(-c2cc3c(cc2-c2ccc(F)cc2)C(=O)NC3)cn1`: the IC50 in assay [1] is greater than 10 µM; in assay [2], 0.659 µM.

`Cc1ccc(-c2cc3c(cc2-c2ccc(F)cc2)C(=O)NC3)nc1` had an IC50 in assay [1] greater than 10 µM.

`O=C1NCc2cc(-c3cnc4[nH]ccc4c3)c(-c3ccc(F)cc3F)cc21`: in assay [1], the IC50 was greater than 10 µM.
